One data set has as its system MOLT-4. Kind of data set: Cytostatic activity against human Molt4/C8 cells. It counts as functional, cell-based.
Data set [1] has as its system CCRF-CEM. Kind of data set: Cytostatic activity against human CEM cells. It counts as functional.
Data set [2] in a line: Cytostatic activity against mouse L1210/0 cells. It counts as functional, cell-based.
The test system of data set [3] is Human immunodeficiency virus 1. Kind of data set: Antiviral activity against HIV1. It counts as functional, organism-based.
For data set [4], the system named is Human immunodeficiency virus 2. Nature of the data set: Antiviral activity against HIV2. It counts as functional, organism-based.
Data set [5] in a line: Antiproliferative activity against human Molt4/C8 cells. It counts as functional, cell-based. The following applies: MOLT-4.
Data set [6] in a line: Antiproliferative activity against mouse L1210/0 cells. It counts as functional, cell-based.
Data set [7] has as its system unidentified influenza virus. Kind of data set: Antiviral activity against Influenza virus. It counts as functional.
The test system of data set [8] is Cytomegalovirus. Nature of the data set: Antiviral activity against Cytomegalovirus Davis infected in HEL cells assessed as inhibition of virus plaque formation. It counts as functional, organism-based. The conditions noted are these: Human betaherpesvirus 5, Davis.
Data set [9] has as its system Cytomegalovirus. Kind of data set: Antiviral activity against Cytomegalovirus AD169 infected in HEL cells assessed as inhibition of viral plaque formation. It counts as functional, organism-based. The following applies: Human betaherpesvirus 5, AD169, HEL.
A short description of data set [10]: Binding affinity to HSV1 uracil-DNA glycosylase after 30 mins by electrophoretic mobility shift assay. Further details: species or system Human alphaherpesvirus 1. Background: Mobility shift assays separate free from complexed probe on a gel.
The subject of a further data set is Influenza A virus. Nature of the data set: Antiviral activity against Influenza A virus. It counts as functional, organism-based.
The next data set has as its system Human betaherpesvirus 5. Nature of the data set: Antiviral activity against HCMV infected in HEL cells assessed as inhibition of virus-induced cytopathic effect after 6 days. The conditions noted are these: Human betaherpesvirus 5, HEL, 144 h. It counts as functional, organism-based. On the technique in general: Cytopathic effects are the visible damage that an infection or toxin causes in cultured cells.

Data set [11] deals with Vesicular stomatitis virus. Nature of the data set: Antiviral activity against Vesicular stomatitis virus. It counts as functional, organism-based.
The subject of the next data set is Vaccinia virus. Kind of data set: Antiviral activity against Vaccinia virus. It counts as functional, organism-based. The conditions noted are these: Orthopoxvirus vaccinia.
Data set [12] relates to Human immunodeficiency virus 1. Nature of the data set: Antiviral activity against HIV1 infected in human MT4 cells assessed as inhibition of virus-induced cytopathic effect. It counts as functional, organism-based. The conditions noted are these: Human immunodeficiency virus 1, MT4.
Another data set relates to Human alphaherpesvirus 2. Nature of the data set: Antiviral activity against Herpes simplex virus 2 G assessed as inhibition of virus-induced cytopathic effect by cell based assay. It counts as functional. The conditions noted are these: Human alphaherpesvirus 2, strain G.
The test system of the next data set is Human alphaherpesvirus 1. Kind of data set: Antiviral activity against Herpes simplex virus 1 KOS assessed as inhibition of virus-induced cytopathic effect by cell based assay. It counts as functional. The following applies: Human alphaherpesvirus 1, KOS.
In data set [13] the target is T1, Inosine-uridine preferring nucleoside hydrolase (Crithidia fasciculata, UniProt Q27546).
T1 sequence (Q27546 whole entry): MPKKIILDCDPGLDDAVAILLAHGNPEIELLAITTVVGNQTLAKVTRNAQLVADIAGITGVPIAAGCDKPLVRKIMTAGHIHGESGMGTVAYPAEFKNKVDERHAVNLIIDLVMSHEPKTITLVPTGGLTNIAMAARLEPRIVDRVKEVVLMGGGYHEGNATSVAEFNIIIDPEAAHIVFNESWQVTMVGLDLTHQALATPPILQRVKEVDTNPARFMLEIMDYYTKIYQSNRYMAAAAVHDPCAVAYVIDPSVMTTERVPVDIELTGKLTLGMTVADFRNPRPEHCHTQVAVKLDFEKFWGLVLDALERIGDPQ
Nature of the data set: Inhibition of Crithidia fasciculata inosine-uridine nucleoside hydrolase expressed in Escherichia coli using p-nitrophenyl beta-D-ribofuranoside as substrate by xanthine oxidase coupled enzyme assay.

Data set [14] concerns the target T2, Inosine-adenosine-guanosine-nucleoside hydrolase (Trypanosoma brucei brucei, UniProt O15727).
T2 sequence (O15727 whole entry): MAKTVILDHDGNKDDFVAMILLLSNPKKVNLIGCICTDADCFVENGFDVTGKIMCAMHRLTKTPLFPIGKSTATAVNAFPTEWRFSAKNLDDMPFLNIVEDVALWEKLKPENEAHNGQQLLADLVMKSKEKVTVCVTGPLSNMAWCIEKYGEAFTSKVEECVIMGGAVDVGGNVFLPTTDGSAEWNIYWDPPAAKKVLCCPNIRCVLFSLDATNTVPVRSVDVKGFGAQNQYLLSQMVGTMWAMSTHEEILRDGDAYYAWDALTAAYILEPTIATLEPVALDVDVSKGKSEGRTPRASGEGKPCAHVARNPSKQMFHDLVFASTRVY
Kind of data set: Inhibition of Trypanosoma brucei brucei inosine-adenosine-guanosine nucleoside hydrolase expressed in Escherichia coli.

Data set [15] in a line: Inhibition of Trichomonas vaginalis purine nucleoside phosphorylase using […] as substrate by xanthine oxidase coupled enzyme assay.
A short description of data set [16]: Cytotoxicity against human CEM/0 cells assessed as reduction in cell viability. It counts as cell-based, CCRF-CEM.
The nature of data set [17]: Cytotoxicity against HEL cells assessed as reduction in cell viability. The following applies: human. It counts as cell-based.
The nature of data set [18]: Cytotoxicity against African green monkey Vero cells assessed as alteration in cell morphology by microscopic method. It counts as cell-based. The conditions noted are these: chlorocebus sabaeus.
Data set [19] is described as follows: Cytotoxicity against human E6SM cells assessed as alteration in cell morphology by microscopic method. It counts as cell-based.
Data set [20] is described as follows: Cytotoxicity against human HeLa cells assessed as alteration in cell morphology by microscopic method. It counts as cell-based.
The subject of a further data set is Hepatitis C virus. Nature of the data set: Antiviral activity against Hepatitis C virus. It counts as functional, organism-based, Hepacivirus hominis.
The test system of data set [21] is CCRF-CEM. Nature of the data set: Growth inhibition of human CCRF-CEM cells. It counts as functional, cell-based.
A short description of data set [22]: Cytotoxicity against HEL cells. It counts as cell-based. The conditions noted are these: human.
Data set [23] can be described thus: Cytotoxicity against African green monkey Vero cells. It counts as cell-based. The conditions noted are these: chlorocebus sabaeus.
Data set [24] can be described thus: Cytotoxicity against human CEM/0 cells. It counts as cell-based, CCRF-CEM.
Data set [25] in a line: Cytotoxicity against human E6SM cells. It counts as cell-based.
Data set [26] is described as follows: Cytotoxicity against human HeLa cells. It counts as cell-based.
Data set [27] can be described thus: Cytotoxicity against MDCK cells. It counts as cell-based, Canis lupus familiaris. The following applies: dog.
Data set [28] relates to Human immunodeficiency virus 1. Kind of data set: Antiviral activity against HIV1 infected in human CEM cells assessed as protection against virus-induced cytopathicity by giant cell formation assay. It counts as functional, organism-based. The following applies: Human immunodeficiency virus 1, CCRF-CEM.
Data set [29] deals with Human immunodeficiency virus 2. Kind of data set: Antiviral activity against HIV2 infected in human CEM cells assessed as protection against virus-induced cytopathicity by giant cell formation assay. It counts as functional, organism-based. The conditions noted are these: Human immunodeficiency virus 2, CCRF-CEM.

SMILES strings stand for the structures. Converted amounts (≈) assume the structure as drawn.

Here are results for 14 compounds from ChEMBL document CHEMBL3826905, “1'-Homonucleosides and their structural analogues: A review” (Eur J Med Chem, 2016).

As a reminder, the EC50 is the concentration needed to bring the measured effect to its halfway point. By IC50 is commonly meant the concentration needed to halve the response being measured. The Kd is the equilibrium constant for the complex coming apart. A word on the Ki: it is the dissociation constant of the complex between target and ligand, obtained from inhibition or displacement. One may read the CC50 as the concentration giving 50% cytotoxicity.

`CC1(C)[C@@H](CO)CC[C@@]1(C)Cn1cnc2c(Cl)ncnc21`: the Activity with MOLT-4 is 9 µg/mL; in the data set on CCRF-CEM [1] it was 14 µg/mL; in [2] it was 13 µg/mL.
On to `CC1(C)[C@@H](Cn2cnc3c(Cl)nc(N)nc32)CC[C@@]1(C)CO`, for which the EC50 in [3] and in data set [4] was 4 µg/mL (≈ 12.4 µM) throughout. For the same compound, the half-maximal inhibitory concentration (IC50) is 13.2 µg/mL (≈ 40.8 µM) in data set [5] and 16.2 µg/mL (≈ 50 µM) in data set [6].
Consider `CC1(C)[C@@H](Cn2cnc3c(Cl)ncnc32)CC[C@@]1(C)CO`, for which the IC50 in data set [5] was 3.8 µg/mL (≈ 12.3 µM). This compound also showed an MIC in data set [7] of 10 µg/mL (≈ 32.4 µM).
For the compound `Nc1nc(Cl)c2ncn(C[C@H]3CCC[C@H]3CO)c2n1`, the concentration for half-maximal inhibition (IC50) in the data set with Cytomegalovirus [8] and with Cytomegalovirus [9] was > 5 µg/mL in each case.
In the case of `O=c1ccn(C[C@H]2C[C@H](O)[C@@H](CO)O2)c(=O)[nH]1`, in [10], the Kd came out at 0.16 µM. The compound further displayed an IC50 in the data set on Influenza A virus of 94.2 µg/mL (≈ 389 µM).
For `Nc1ncnc2c1ncn2CC1(CO)CC=CC1`, in the data set on Human betaherpesvirus 5, the concentration giving a half-maximal response (EC50) came to 78.1 µM.
For the compound `Cc1ccc(S(=O)(=O)OC[C@H]2OC[C@@H]3OCO[C@@H]32)cc1`, the half-inhibitory concentration (IC50) (in data set [11]; in the data set on Vaccinia virus) was > 400 µg/mL throughout.
Turning to `Nc1ccn(CC2(CO)CC=CC2)c(=O)n1`, the half-maximal effective concentration (EC50) in [12] was found to be 56.4 µM.
As to `Nc1nc2c(ncn2C[C@H]2C[C@H](O)[C@@H](CO)O2)c(=O)[nH]1`, the MIC in the data set with Human alphaherpesvirus 2 and in the data set with Human alphaherpesvirus 1 was 5 µg/mL (≈ 17.8 µM) in each case.
As for `Nc1ncnc2c1ncn2C[C@@H]1N[C@H](CO)[C@@H](O)[C@H]1O`, the Ki in [13] is 5.4 µM; in data set [14], 3.6 µM; in data set [15] it was > 10 µM.
On to `Nc1nc(Cl)c2ncn(C[C@H]3CC[C@@H](CO)C3)c2n1`, for which the CC50 in data set [16], in [17], in [18], in data set [19] and in data set [20] was 1 µg/mL (≈ 3.55 µM) in each case.
Compound `Clc1ncnc2c1ncn2CC12CCC(O1)c1cc3ccccc3cc12` (centres undefined) displayed an EC50 in the data set on Hepatitis C virus of 6.31 µM. This compound had an IC50 in the data set with CCRF-CEM [21] of 5.73 µM.
For the compound `Nc1ncnc2c1ncn2C[C@H]1CC[C@@H](CO)C1`, the 50% cytotoxic concentration (CC50) in data set [22], in [23], in data set [24], in data set [25], in data set [26] and in data set [27] was 80 µg/mL (≈ 323 µM) each time. In addition, the concentration for half-maximal inhibition (IC50) in data set [5] and in data set [6] was 73 µg/mL (≈ 295 µM) in each case.
Turning to `O=c1[nH]c(=O)n([C@H]2CCC[C@H]2CO)cc1I`, the EC50 in data set [28] and in data set [29] was 12.5 µg/mL (≈ 37.2 µM) throughout.
